Experimental data as given in US20230135524A1, “ARYL HYDANTOIN HETEROCYCLES AND METHODS OF USE” (The United States of America,as represented by the …, priority 2020, published 2023).

Key:
Aldosterone Receptor = target: T1, Aldosterone Receptor (UniProt P22199); assay: Radioligand competition binding, [3H] aldosterone; settings: competition with [3H] aldosterone, 20 hours
T1 sequence (P22199 1-981): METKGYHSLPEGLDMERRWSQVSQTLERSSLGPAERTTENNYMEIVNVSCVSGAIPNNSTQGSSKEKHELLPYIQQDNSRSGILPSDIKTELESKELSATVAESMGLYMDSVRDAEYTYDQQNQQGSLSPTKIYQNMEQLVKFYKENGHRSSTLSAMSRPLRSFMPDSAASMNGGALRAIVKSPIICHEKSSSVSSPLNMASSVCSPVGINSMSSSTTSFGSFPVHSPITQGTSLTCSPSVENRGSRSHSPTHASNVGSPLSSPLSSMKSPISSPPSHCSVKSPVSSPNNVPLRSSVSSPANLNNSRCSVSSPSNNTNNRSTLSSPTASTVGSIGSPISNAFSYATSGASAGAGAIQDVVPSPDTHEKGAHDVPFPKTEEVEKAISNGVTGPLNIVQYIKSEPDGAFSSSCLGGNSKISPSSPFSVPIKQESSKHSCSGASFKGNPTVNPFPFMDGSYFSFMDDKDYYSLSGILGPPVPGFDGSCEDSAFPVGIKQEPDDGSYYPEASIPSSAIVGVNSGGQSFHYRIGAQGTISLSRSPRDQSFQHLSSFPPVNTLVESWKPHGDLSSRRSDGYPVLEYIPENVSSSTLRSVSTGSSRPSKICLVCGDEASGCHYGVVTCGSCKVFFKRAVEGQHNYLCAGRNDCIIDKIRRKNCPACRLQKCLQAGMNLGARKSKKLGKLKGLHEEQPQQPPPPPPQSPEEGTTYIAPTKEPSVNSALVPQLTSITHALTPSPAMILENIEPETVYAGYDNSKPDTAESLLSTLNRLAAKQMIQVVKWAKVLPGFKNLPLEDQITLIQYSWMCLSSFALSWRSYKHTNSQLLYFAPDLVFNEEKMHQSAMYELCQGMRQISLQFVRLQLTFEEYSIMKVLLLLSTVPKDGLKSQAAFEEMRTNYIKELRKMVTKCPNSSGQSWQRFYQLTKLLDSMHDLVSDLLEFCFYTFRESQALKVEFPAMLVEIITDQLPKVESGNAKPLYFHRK
Experimental: (§1) Binding assays were performed via competition with radioactive ligands across a range of dose of compounds 15a and 19d. For aldosterone binding, the aldosterone receptor was incubated for 20 hours with […] aldosterone. Similarly, the androgen receptor was co-incubated with 0.5 nM of [^3H] methyltrienolone, the estrogen receptor alpha was co-incubated with 0.5 nM [^3H] estradiol, the glucocorticoid receptor with 0.5 nM [^3H] dexamethasone, and the progesterone receptor with 0.5 nM [^3H] progesterone as parent ligands.

LNCaP ARF876L = assay: IncuCyte % confluence cell growth inhibition, LNCaP ARF876L; format: cell-based; settings: Homo sapiens, AR-positive, AR mutation F876L, % cell growth inhibition relative to DMSO
Experimental: (§2) Images were then analyzed to discern the % confluence of cells in each well. IC50 values were calculated from dose response curves of the % cell growth inhibition relative to DMSO control at the same time point per each cell line.

DU145 = assay: IncuCyte % confluence cell growth inhibition, DU145; format: cell-based; settings: Homo sapiens, DU-145, read-out: IC50 values (μM), DU145
Experimental: as §2

LAPC4 = assay: IncuCyte % confluence cell growth inhibition, LAPC4; format: cell-based; settings: Homo sapiens, LAPC4, read-out: IC50 values (μM), LAPC4
Experimental: as §2

22Rv1 = assay: IncuCyte % confluence cell growth inhibition, 22Rv1; format: cell-based; settings: Homo sapiens, 22Rv1, read-out: IC50 values (μM), 22Rv1
Experimental: as §2

PC3 = assay: IncuCyte % confluence cell growth inhibition, PC3; format: cell-based; settings: Homo sapiens, PC-3, read-out: IC50 values (μM), PC3
Experimental: as §2

LNCaP = assay: IncuCyte % confluence cell growth inhibition, LNCaP; format: cell-based; settings: Homo sapiens, read-out: IC50 values (μM), LNCaP
Experimental: as §2

Estrogen Receptor alpha = Estrogen Receptor alpha (Homo sapiens, UniProt P03372); assay: Radioligand competition binding, [3H] estradiol; settings: competition with 0.5 nM [3H] estradiol
Experimental: as §1

Progesterone Receptor B = target: T2, Progesterone Receptor B (Homo sapiens, UniProt P06401); assay: Radioligand competition binding, [3H] progesterone; settings: competition with 0.5 nM [3H] progesterone
T2 sequence (P06401 1-933): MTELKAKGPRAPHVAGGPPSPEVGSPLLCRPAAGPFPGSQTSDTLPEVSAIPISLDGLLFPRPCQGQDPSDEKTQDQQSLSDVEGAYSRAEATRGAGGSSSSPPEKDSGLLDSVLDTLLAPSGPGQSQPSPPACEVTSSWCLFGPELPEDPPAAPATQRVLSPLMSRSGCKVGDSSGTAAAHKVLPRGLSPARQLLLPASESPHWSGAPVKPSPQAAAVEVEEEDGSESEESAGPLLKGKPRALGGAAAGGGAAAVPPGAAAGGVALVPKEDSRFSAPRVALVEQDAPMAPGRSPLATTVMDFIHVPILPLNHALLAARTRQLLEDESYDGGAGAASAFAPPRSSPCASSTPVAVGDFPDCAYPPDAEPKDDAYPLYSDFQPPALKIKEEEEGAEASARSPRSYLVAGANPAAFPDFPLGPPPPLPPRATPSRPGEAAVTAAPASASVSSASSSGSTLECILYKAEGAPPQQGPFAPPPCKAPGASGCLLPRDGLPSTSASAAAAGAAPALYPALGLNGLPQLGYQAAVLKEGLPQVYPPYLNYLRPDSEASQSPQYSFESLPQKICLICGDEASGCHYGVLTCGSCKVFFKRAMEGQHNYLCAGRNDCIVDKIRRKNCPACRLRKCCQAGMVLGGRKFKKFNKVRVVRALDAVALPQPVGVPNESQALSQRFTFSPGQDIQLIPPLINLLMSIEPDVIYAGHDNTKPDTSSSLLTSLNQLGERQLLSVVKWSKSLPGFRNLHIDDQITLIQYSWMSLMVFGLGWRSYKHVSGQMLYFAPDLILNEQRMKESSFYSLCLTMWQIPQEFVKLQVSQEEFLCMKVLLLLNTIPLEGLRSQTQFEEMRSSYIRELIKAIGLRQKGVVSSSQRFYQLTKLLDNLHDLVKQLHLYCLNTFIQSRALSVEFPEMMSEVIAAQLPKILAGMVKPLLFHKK
Experimental: as §1

Sequence of Estrogen Receptor alpha (P03372 whole entry): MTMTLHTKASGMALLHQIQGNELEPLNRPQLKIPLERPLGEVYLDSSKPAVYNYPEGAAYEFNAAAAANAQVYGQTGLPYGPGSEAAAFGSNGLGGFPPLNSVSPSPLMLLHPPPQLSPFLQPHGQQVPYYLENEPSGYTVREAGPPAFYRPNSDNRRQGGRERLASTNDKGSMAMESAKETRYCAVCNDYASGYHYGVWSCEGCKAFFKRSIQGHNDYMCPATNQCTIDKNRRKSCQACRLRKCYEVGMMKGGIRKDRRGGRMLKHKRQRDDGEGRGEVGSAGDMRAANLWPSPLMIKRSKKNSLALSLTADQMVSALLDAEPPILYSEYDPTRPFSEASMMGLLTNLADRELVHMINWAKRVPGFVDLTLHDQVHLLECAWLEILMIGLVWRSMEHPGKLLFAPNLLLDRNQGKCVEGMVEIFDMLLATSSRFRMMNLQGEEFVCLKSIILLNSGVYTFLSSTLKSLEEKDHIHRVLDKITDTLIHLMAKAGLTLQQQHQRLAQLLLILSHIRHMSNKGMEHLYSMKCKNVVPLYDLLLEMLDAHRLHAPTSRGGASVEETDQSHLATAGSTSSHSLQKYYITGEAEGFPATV

Structure (SMILES) | IC50 (Aldosterone Receptor) [nM] | IC50 (LNCaP ARF876L) [µM] | IC50 (DU145) [µM] | IC50 (LAPC4) [µM] | IC50 (22Rv1) [µM] | IC50 (PC3) [µM] | IC50 (LNCaP) [µM] | IC50 (Estrogen Receptor alpha) [nM] | IC50 (Progesterone Receptor B) [nM]
CC1(C)C(=O)N(c2ccc(C#N)c(C(F)(F)F)c2)C(=S)N1Cc1ccc(-c2c[nH]nn2)cc1F [Compound 19d, 4-(3-(2-Fluoro-4-(1H-1,2,3-triazol-4-yl)benzyl)-4,4-dimethyl-5-oxo-2-thioxoimidazolidin-1-yl)-2-(trifluoromethyl)benzonitrile] | > 10000 | 22.3 | 53.6 | 16.3 | 26.9 | 44.8 | 35.7 | > 10000 | 76.3
CC1(C)C(=O)N(c2ccc(C#N)c(C(F)(F)F)c2)C(=S)N1Cc1ccc(-c2c[nH]nn2)cc1 [Compound 15a, 4-(3-(4-(1H-1,2,3-triazol-4-yl)benzyl)-4,4-dimethyl-5-oxo-2-thioxoimidazolidin-1-yl)-2-(trifluoromethyl)benzonitrile] | > 10000 | 21 | 37.3 | 13.3 | 18.3 | 59.8 | 30.5 | > 10000 | 103
